In patent publication US12378296B2, “Glucagon analogues as long-acting GLP-1/glucagon receptor agonists in the treatment of fatty liver disease and steatohepatitis” (Boehringer Ingelheim International GmbH, priority 2020, dated 2025):

Assay: Pharmacokinetic parameters after intravenous administration to rats
Type: in vivo
Conditions: male, Han/Wistar, plasma, rat, i.v. 20 nmol/kg; for MRT: read-out: Mean Residence Time; for half-life: read-out: Terminal half-life (converted)
Method: Pharmacokinetic parameters of the test compounds were determined after intravenous administration to Han/Wistar rats. The acylated GLP-1 analogue semaglutide was also tested for comparison purposes.
Male Wistar rats were obtained from Charles River (Germany) weighing approximately 180 to 210 g at time of arrival at the test facility. Rats were caged in European standard rat cages type IV with light cycle of 12-hour dark and 12-hour light. During the study rats were housed in standard rat cages type III. Both diet Altromin 1324 (Altromin, Germany) and water was administered ad libitum during the whole experimental period. The animals were housed in the test facility for at least 4 days in order to assure proper acclimatization.
The compounds were first dissolved in 0.1% aqueous ammonia to a nominal concentration of 2 mg/ml, and then diluted to the desired dosing strength (10 μM) in sterile PBS containing 25 mM phosphate buffer, pH 7.4. Intravenous injections corresponding to 20 nmol/kg were given via a lateral tail vein.
Blood samples (200 μl) were collected from the periorbital plexus at time points 0.08, 0.25, 0.5, 1, 2, 4, 8, 24, 32 and 48 h post dosing into K3EDTA tubes and centrifuged for 5 minutes at 4° C. within 20 minutes of sampling. Plasma samples (>100 μl) were transferred to 96-well PCR plates, immediately frozen and kept at −20° C. until analysed for plasma concentration for the respective GLP-1-glucagon compound using LC-MS/MS. Individual plasma concentration-time profiles were analysed by a non-compartmental approach using ToxKin™ version 3.2 (Unilog IT Services), and the resulting pharmacokinetic parameters were determined.

SMILES	clearance	MRT	half-life
CC[C@H](C)[C@H](NC(=O)[C@H](Cc1ccccc1)NC(=O)[C@H](CC(=O)O)NC(=O)[C@H](CCCCN)NC(=O)[C@H](C)NC(=O)[C@H](C)NC(=O)[C@H](CCCNC(=N)N)NC(=O)[C@H](CCC(=O)O)NC(=O)[C@H](CC(=O)O)NC(=O)[C@H](CC(C)C)NC(=O)[C@H](Cc1ccc(O)cc1)NC(=O)[C@H](CCCCN)NC(=O)[C@H](CO)NC(=O)[C@H](Cc1ccc(O)cc1)NC(=O)[C@H](CC(=O)O)NC(=O)[C@H](CO)NC(=O)[C@@H](NC(=O)[C@H](Cc1ccccc1)NC(=O)[C@@H](NC(=O)CNC(=O)[C@H](CCC(N)=O)NC(=O)C1(NC(=O)[C@@H](N)Cc2c[nH]cn2)CCC1)[C@@H](C)O)[C@@H](C)O)C(=O)N[C@@H](CCCCNC(=O)CNC(=O)CNC(=O)[C@H](CO)NC(=O)CNC(=O)[C@H](CO)NC(=O)CNC(=O)CC[C@H](NC(=O)CCCCCCCCCCCCCCCCC(=O)O)C(=O)O)C(=O)N[C@@H](Cc1c[nH]c2ccccc12)C(=O)N[C@@H](CC(C)C)C(=O)N[C@@H](CCC(=O)O)C(=O)N[C@@H](CO)C(=O)N[C@@H](C)C(N)=O [Compound 5]	3.57 mL/h/kg	28.5 h	22.8 h
CC[C@H](C)[C@H](NC(=O)[C@H](Cc1ccccc1)NC(=O)[C@H](CC(=O)O)NC(=O)[C@H](CCCCN)NC(=O)[C@H](C)NC(=O)[C@H](C)NC(=O)[C@H](CCCNC(=N)N)NC(=O)[C@H](CCC(=O)O)NC(=O)[C@H](CC(=O)O)NC(=O)[C@H](CC(C)C)NC(=O)[C@H](Cc1ccc(O)cc1)NC(=O)[C@H](CCCCN)NC(=O)[C@H](CO)NC(=O)[C@H](Cc1ccc(O)cc1)NC(=O)[C@H](CC(=O)O)NC(=O)[C@H](CO)NC(=O)[C@@H](NC(=O)[C@H](Cc1ccccc1)NC(=O)[C@@H](NC(=O)CNC(=O)[C@H](CCC(N)=O)NC(=O)C1(NC(=O)[C@@H](N)Cc2c[nH]cn2)CCC1)[C@@H](C)O)[C@@H](C)O)C(=O)N[C@@H](CCC(=O)O)C(=O)N[C@@H](Cc1c[nH]c2ccccc12)C(=O)N[C@@H](CC(C)C)C(=O)N[C@@H](CCC(=O)O)C(=O)N[C@@H](CCCCNC(=O)CNC(=O)CNC(=O)[C@H](CO)NC(=O)CNC(=O)[C@H](CO)NC(=O)CNC(=O)CC[C@H](NC(=O)CCCCCCCCCCCCCCCCC(=O)O)C(=O)O)C(=O)N[C@@H](C)C(N)=O [Compound 6]	5.98 mL/h/kg	23.7 h	18.1 h
